In patent US7271253B1, “Safe process for the preparation of balsalazide” (Apotex Pharmachem Inc., priority 2006, dated 2007):

What was measured:
[1] = Solubility in water of N-(4-aminobenzoyl)-β-alanine salts; type: physicochemical
From the text: According to one aspect of the invention, a more soluble salt of N-(4-aminobenzoyl)-β-alanine is provided which overcomes the use of the previous forms which were virtually insoluble in water.
(for example as depicted in FIG. 1). This latter temperature was selected as it provided for optimal reaction.
The preferred concentration of the aqueous sulfonic acid solution was about 4% to about 14%, more preferably about 7% to about 12%, and most preferably about 9%. The fact that higher concentrations were preferred, despite the decreased solubility of the salt, was a consequence of the fact that operationally, the use of about 9% sulfonic acid concentrations permitted proportionally lower reaction volumes, without compromising safety, and was advantageous for commercial scale-up.
FIG. 3—A comparison of the relative solubility of mesylate in differing concentrations of aqueous methanesulfonic acid.

[2] = RSST, different reaction temperatures, FIG. 1
From the text: The decomposition of the intermediate was indicated by the pressure increase.
FIG. 1—Plot showing the rate of decomposition of diazonium mesylate at different temperatures. Increased pressure is indicative of the decomposition of the mesylate to form nitrogen gas.

[3] = DSC, FIG. 2

Structure (SMILES): Nc1ccc(C(=O)NCCC(=O)O)cc1 [chloride, N-(4-aminobenzoyl)-β-alanine]
- solubility in water [1]: poorly soluble
- solubility in water ([1]; listed as hydrochloride salt of 4-aminobenzoyl-β-alanine): poor solubility

Structure (SMILES): CS(=O)(=O)[O-].N#[N+]c1ccc(C(=O)NCCC(=O)O)cc1 [diazonium mesylate, N-(4-diazoniumbenzoyl)-β-alanine sulfonate salt]
- temperature at which decomposition may start [2]: 25 °C
- decomposition energy of solid relative to solution [3]: almost ten-fold higher

Structure (SMILES): Nc1ccc(C(=O)NCCC(=O)O)cc1 [free-base, N-(4-aminobenzoyl)-β-alanine]
- solubility at higher concentrations of sulfonic acid ([1]; differing concentrations of aqueous methanesulfonic acid, FIG. 3): decrease in the solubility

Structure (SMILES): CS(=O)(=O)O.Nc1ccc(C(=O)NCCC(=O)O)cc1 [methanesulfonic acid salt, N-(4-ammoniumbenzoyl)-β-alanine sulfonate salt]
- solubility in water [1]: unexpectedly high water solubility
